14 molecules from patent publication US8952157B2, “Apoptosis-inducing agents for the treatment of cancer and immune and autoimmune diseases” (AbbVie Inc., priority 2008, dated 2015) can be followed below.

Structures are written as SMILES. Some results are limits rather than exact numbers.

GST-Bcl-2, sequence (P10415 whole entry): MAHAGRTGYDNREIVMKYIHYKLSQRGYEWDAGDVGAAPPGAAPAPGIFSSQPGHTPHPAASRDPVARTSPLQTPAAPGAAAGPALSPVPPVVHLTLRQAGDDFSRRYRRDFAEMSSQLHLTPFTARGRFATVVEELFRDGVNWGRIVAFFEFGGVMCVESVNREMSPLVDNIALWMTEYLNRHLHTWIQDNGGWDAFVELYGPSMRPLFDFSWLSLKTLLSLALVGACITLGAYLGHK

The experiment concerns the target GST-Bcl-2 (Homo sapiens (Human), UniProt P10415). Briefly: Time Resolved-Fluorescence Resonance Energy Transfer (TR-FRET) Bcl-2 binding assay. As to conditions: GST-Bcl-2 1 nM, F-Bak peptide probe 100 nM, Tb-anti-GST antibody 1 nM; Ki by Wang's equation. The method, boiled down: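 Competition TR-FRET: GST-Bcl-2 with fluorescent Bak peptide probe and Tb-anti-GST antibody, compounds serially diluted from 50 μM (2× start, 10% DMSO).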
(In TR-FRET formats the signal depends on donor and acceptor labels being close together.)
Turning to `CC(c1ccccc1-c1ccc(Cl)cc1)N1CCN(c2ccc(C(=O)NS(=O)(=O)c3ccc(NC4CCN(C)CC4)c([N+](=O)[O-])c3)c(Oc3ccccc3Cl)c2)CC1` (centres unmarked) [Example 206, 4-{4-[1-(4′-chloro-1,1′-biphenyl-2-yl)ethyl]piperazin-1-yl}-2-(2-chlorophenoxy)-N-({4-[(1-methylpiperidin-4-yl)amino]-3-nitrophenyl}sulfonyl)benzamide], the Ki (as a rule, the equilibrium dissociation constant of an inhibitor or competing ligand from its target) came out at 0.037 nM.

Molecule `CN(C)CCCNc1ccc(S(=O)(=O)NC(=O)c2ccc(N3CCN(Cc4ccccc4-c4ccc(Cl)cc4)CC3)cc2Oc2cccc(OCc3ccccc3)c2)cc1[N+](=O)[O-]` [Example 92, 2-(3-(benzyloxy)phenoxy)-4-(4-((4′-chloro-1,1′-biphenyl-2-yl)methyl)piperazin-1-yl)-N-((4-((3-(dimethylamino)propyl)amino)-3-nitrophenyl)sulfonyl)benzamide] returned a Ki of 2.57 nM.

`CC1(C)CC(c2ccc(Cl)cc2)=C(CN2CCN(c3ccc(C(=O)NS(=O)(=O)c4cnc(OCC5CCOCC5)c(C#N)c4)c(Oc4cc5cc[nH]c5cc4F)c3)CC2)CO1` [Example 298, 4-(4-{[4-(4-chlorophenyl)-6,6-dimethyl-5,6-dihydro-2H-pyran-3-yl]methyl}piperazin-1-yl)-N-{[5-cyano-6-(tetrahydro-2H-pyran-4-ylmethoxy)pyridin-3-yl]sulfonyl}-2-[(6-fluoro-1H-indol-5-yl)oxy]benzamide] yielded a Ki of 0.054 nM.

In turn, `CC1(C)CCC(CN2CCN(c3ccc(C(=O)NS(=O)(=O)c4cnc(OCC5CCC(F)(F)CC5)c(Cl)c4)c(Oc4cnc(N)c(Cl)c4)c3)CC2)=C(c2ccc(Cl)cc2)C1` [Example 409, 2-[(6-amino-5-chloropyridin-3-yl)oxy]-N-({5-chloro-6-[(4,4-difluorocyclohexyl)methoxy]pyridin-3-yl}sulfonyl)-4-(4-{[2-(4-chlorophenyl)-4,4-dimethylcyclohex-1-en-1-yl]methyl}piperazin-1-yl)benzamide] returned a Ki of 0.686 nM.

Molecule `CN1CC[C@@H](Nc2ccc(S(=O)(=O)NC(=O)c3ccc(N4CCN(CC5=C(c6ccc(Cl)cc6)CC(C)(C)CC5)CC4)cc3Oc3cccc(Cl)c3)cc2[N+](=O)[O-])C1` [Example 195, 2-(3-chlorophenoxy)-4-(4-{[2-(4-chlorophenyl)-4,4-dimethylcyclohex-1-en-1-yl]methyl}piperazin-1-yl)-N-[(4-{[(3R)-1-methylpyrrolidin-3-yl]amino}-3-nitrophenyl)sulfonyl]benzamide] displayed a Ki of 0.684 nM.

On to `O=C(NS(=O)(=O)c1ccc(NCCCN2CCOCC2)c([N+](=O)[O-])c1)c1ccc(N2CCN(Cc3ccccc3-c3ccc(Cl)cc3)CC2)cc1Oc1cccc(Cl)c1` [Example 12, 4-(4-((4′-chloro-1,1′-biphenyl-2-yl)methyl)piperazin-1-yl)-2-(3-chlorophenoxy)-N-((4-((3-morpholin-4-ylpropyl)amino)-3-nitrophenyl)sulfonyl)benzamide], for which affinity was put at a Ki of 0.331 nM.

Consider `Cc1cc(Oc2cc(N3CCN(CC4=C(c5ccc(Cl)cc5)CC(C)(C)CC4)CC3)ccc2C(=O)NS(=O)(=O)c2ccc(NCC3CCOCC3)c([N+](=O)[O-])c2)cnc1N` [Example 362, 2-[(6-amino-5-methylpyridin-3-yl)oxy]-4-(4-{[2-(4-chlorophenyl)-4,4-dimethylcyclohex-1-en-1-yl]methyl}piperazin-1-yl)-N-({3-nitro-4-[(tetrahydro-2H-pyran-4-ylmethyl)amino]phenyl}sulfonyl)benzamide], for which the Ki is 0.033 nM.

`Nc1ncc(Oc2cc(N3CCN(CC4=C(c5ccc(Cl)cc5)CCC5(CCN(C(CF)CF)CC5)C4)CC3)ccc2C(=O)NS(=O)(=O)c2ccc(NCC3CCOCC3)c([N+](=O)[O-])c2)cc1Cl` [Example 391, 2-[(6-amino-5-chloropyridin-3-yl)oxy]-4-[4-({9-(4-chlorophenyl)-3-[2-fluoro-1-(fluoromethyl)ethyl]-3-azaspiro[5.5]undec-8-en-8-yl}methyl)piperazin-1-yl]-N-({3-nitro-4-[(tetrahydro-2H-pyran-4-ylmethyl)amino]phenyl}sulfonyl)benzamide]: the Ki is < 0.01 nM.

As for `CC1(C)CCC(CN2CCN(c3ccc(C(=O)NS(=O)(=O)c4ccc(NCC5CCOCC5)c([N+](=O)[O-])c4)c(Oc4ccc(OCc5ccccc5)nc4)c3)CC2)=C(c2ccc(Cl)cc2)C1` [Example 284, 2-{[6-(benzyloxy)pyridin-3-yl]oxy}-4-(4-{[2-(4-chlorophenyl)-4,4-dimethylcyclohex-1-en-1-yl]methyl}piperazin-1-yl)-N-({3-nitro-4-[(tetrahydro-2H-pyran-4-ylmethyl)amino]phenyl}sulfonyl)benzamide], the Ki was determined as 79.3 nM.

In the case of `CN(C)CCCc1c[nH]c2cccc(Oc3cc(N4CCN(CC5=C(c6ccc(Cl)cc6)CC(C)(C)CC5)CC4)ccc3C(=O)NS(=O)(=O)c3ccc(NCC4CCOCC4)c([N+](=O)[O-])c3)c12` [Example 339, 4-(4-{[2-(4-chlorophenyl)-4,4-dimethylcyclohex-1-en-1-yl]methyl}piperazin-1-yl)-2-({3-[3-(dimethylamino)propyl]-1H-indol-4-yl}oxy)-N-({3-nitro-4-[(tetrahydro-2H-pyran-4-ylmethyl)amino]phenyl}sulfonyl)benzamide], the affinity corresponds to a Ki of 0.057 nM.

Consider `CC1(C)CCC(CN2CCN(c3ccc(C(=O)NS(=O)(=O)c4ccc(NCC5CCOCC5)c([N+](=O)[O-])c4)c(Oc4cccc(Cl)c4)c3)CC2)=C(c2ccc(Cl)cc2)C1` [Example 246, 2-(3-chlorophenoxy)-4-(4-{[2-(4-chlorophenyl)-4,4-dimethylcyclohex-1-en-1-yl]methyl}piperazin-1-yl)-N-({3-nitro-4-[(tetrahydro-2H-pyran-4-ylmethyl)amino]phenyl}sulfonyl)benzamide], for which the Ki worked out at 0.065 nM.

`CC1(C)CCC(CN2CCN(c3ccc(C(=O)NS(=O)(=O)c4ccc(NCC5CCOCC5)c([N+](=O)[O-])c4)c(Oc4cc(NC(=O)OC(C)(C)C)ncc4Br)c3)CC2)=C(c2ccc(Cl)cc2)C1` [Example 383, tert-butyl 5-bromo-4-(5-(4-{[2-(4-chlorophenyl)-4,4-dimethylcyclohex-1-en-1-yl]methyl}piperazin-1-yl)-2-{[({3-nitro-4-[(tetrahydro-2H-pyran-4-ylmethyl)amino]phenyl}sulfonyl)amino]carbonyl}phenoxy)pyridin-2-ylcarbamate] yielded a Ki of 427 nM.

In turn, `CN(C)CCc1ccccc1Oc1cc(N2CCN(Cc3ccccc3-c3ccc(Cl)cc3)CC2)ccc1C(=O)NS(=O)(=O)c1ccc(NCC2CCOCC2)c([N+](=O)[O-])c1` [Example 29, 4-(4-((4′-chloro-1,1′-biphenyl-2-yl)methyl)piperazin-1-yl)-2-(2-(2-(dimethylamino)ethyl)phenoxy)-N-((3-nitro-4-((tetrahydro-2H-pyran-4-ylmethyl)amino)phenyl)sulfonyl)benzamide] returned a Ki of 0.903 nM.

Consider `O=C(NS(=O)(=O)c1ccc(NCCCN2CCOCC2)c([N+](=O)[O-])c1)c1ccc(N2CCN(Cc3ccccc3-c3ccc(Cl)cc3)CC2)cc1Oc1ccc(Cl)cc1` [Example 13, 4-(4-((4′-chloro-1,1′-biphenyl-2-yl)methyl)piperazin-1-yl)-2-(4-chlorophenoxy)-N-((4-((3-morpholin-4-ylpropyl)amino)-3-nitrophenyl)sulfonyl)benzamide], for which the Ki was determined as 1.62 nM.
